EC50 data for eight compounds are collected here from patent US7799821B2, “Therapeutic compounds” (Allergan, Inc., priority 2004, dated 2010).

Read-outs that look alike come from different tables or passages of the source.

Common to all, as to format: cell-based
One test addresses T1, hEP2/Gqs5 (Homo sapiens, UniProt P43116).
T1 construct: expressed in transfected cells; host or cells: HEK-293(EBNA)
Kind of test: FLIPR calcium signal, hEP2. Put shortly:
(§1)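 HEK-293(EBNA) cells stably expressing the recombinant human receptor were loaded with 2 μM Fluo-4 AM for 45 min and read on FLIPR at 37° C in HBSS-HEPES pH 7.4. Peak fluorescence rise was expressed relative to buffer and standard agonist controls (BW245C, PGE2 or U-46619 by receptor); compounds were run 10^−5 to 10^−11 M in duplicate, n≧3.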

The next test deals with T2, hTP (Homo sapiens, UniProt P21731).
T2 construct: expressed in transfected cells; host or cells: HEK-293(EBNA)
T2 sequence (P21731 1-343): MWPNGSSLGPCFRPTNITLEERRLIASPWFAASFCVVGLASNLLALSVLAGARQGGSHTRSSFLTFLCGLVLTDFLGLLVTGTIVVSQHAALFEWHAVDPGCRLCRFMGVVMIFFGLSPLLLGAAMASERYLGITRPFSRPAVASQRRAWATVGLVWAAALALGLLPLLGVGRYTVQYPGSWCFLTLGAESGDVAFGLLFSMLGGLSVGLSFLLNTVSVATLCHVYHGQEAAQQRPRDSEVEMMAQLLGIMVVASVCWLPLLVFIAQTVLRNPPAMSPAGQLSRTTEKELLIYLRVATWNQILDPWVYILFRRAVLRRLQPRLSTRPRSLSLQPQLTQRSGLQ
Kind of test: FLIPR calcium signal, hTP. How it is done:
(§2) HEK-293(EBNA) cells, stably expressing one type or subtype of recombinant human prostaglandin receptors (prostaglandin receptors expressed: hDP/Gqs5; hEP1; hEP2/Gqs5; hEP3A/Gqi5; hEP4/Gqs5; hFP; hIP; hTP), were cultured in 100 mm culture dishes in high-glucose DMEM medium containing 10% fetal bovine serum, 2 mM 1-glutamine, 250 μg/ml geneticin (G418) and 200 μg/ml hygromycin B as selection markers, and 100 units/ml penicillin G, 100 μg/ml streptomycin and 0.25 μg/ml amphotericin B. • (b) Calcium Signal Studies on the FLIPR™
(§3) Cells were seeded at a density of 5×10^4 cells per well in Biocoat® Poly-D-lysine-coated black-wall, clear-bottom 96-well plates (Becton-Dickinson) and allowed to attach overnight in an incubator at 37° C. Cells were then washed two times with HBSS-HEPES buffer (Hanks Balanced Salt Solution without bicarbonate and phenol red, 20 mM HEPES, pH 7.4) using a Denley Cellwash plate washer (Labsystems). After 45 minutes of dye-loading in the dark, using the calcium-sensitive dye Fluo-4 AM at a final concentration of 2 μM, plates were washed four times with HBSS-HEPES buffer to remove excess dye leaving 100 μl in each well. Plates were re-equilibrated to 37° C. for a few minutes.
(§4) Cells were excited with an Argon laser at 488 nm, and emission was measured through a 510-570 nm bandwidth emission filter (FLIPR™, Molecular Devices, Sunnyvale, Calif.). Drug solution was added in a 50 μl volume to each well to give the desired final concentration. The peak increase in fluorescence intensity was recorded for each well. On each plate, four wells each served as negative (HBSS-HEPES buffer) and positive controls (standard agonists: BW245C (hDP); PGE2 (hEP1; hEP2/Gqs5; hEP3A/Gqi5; hEP4/Gqs5); PGF2α (hFP); carbacyclin (hIP); U-46619 (hTP), depending on receptor). The peak fluorescence change in each drug-containing well was then expressed relative to the controls.
(§5) Compounds were tested in a high-throughput (HTS) or concentration-response (CoRe) format. In the HTS format, forty-four compounds per plate were examined in duplicates at a concentration of 10^−5 M. To generate concentration-response curves, four compounds per plate were tested in duplicates in a concentration range between 10^−5 and 10^−11 M. The duplicate values were averaged. In either, HTS or CoRe format each compound was tested on at least 3 separate plates using cells from different passages to give an n≧3.

A further test has as its target T3, hEP4/Gqs5 (Homo sapiens, UniProt P35408).
T3 construct: expressed in transfected cells; host or cells: HEK-293(EBNA)
In words: FLIPR calcium signal, hEP4. To be noted: FLIPR Ca2+ signal, HEK-293(EBNA); read-out: FUNCTIONAL EC50 HEP4. Put shortly: as §1

The next test addresses T4, hEP3A/Gqi5 (Homo sapiens, UniProt P43115).
T4 construct: expressed in transfected cells; host or cells: HEK-293(EBNA)
T4 sequence (P43115 1-390): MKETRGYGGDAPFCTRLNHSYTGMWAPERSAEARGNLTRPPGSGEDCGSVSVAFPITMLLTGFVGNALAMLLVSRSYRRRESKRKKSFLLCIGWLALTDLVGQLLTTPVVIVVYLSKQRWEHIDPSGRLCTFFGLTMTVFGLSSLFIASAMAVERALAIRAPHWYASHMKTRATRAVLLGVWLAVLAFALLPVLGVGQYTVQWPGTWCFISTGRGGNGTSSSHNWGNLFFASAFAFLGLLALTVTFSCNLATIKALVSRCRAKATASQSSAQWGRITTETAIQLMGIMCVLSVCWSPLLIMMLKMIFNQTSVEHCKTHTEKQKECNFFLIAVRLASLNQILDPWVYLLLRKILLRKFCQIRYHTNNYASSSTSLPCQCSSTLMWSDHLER
Kind of test: FLIPR calcium signal, hEP3A. To be noted: FLIPR Ca2+ signal, HEK-293(EBNA); read-out: FUNCTIONAL EC50 HEP3A. The method, then: as §2, §3, §4, §5

Setting [1] is: read-out: FUNCTIONAL Ca2+ EC50 HEP2.
The mark [2] stands for this setting: read-out: FUNCTIONAL Ca2+ EC50 HTP.
Setting [3] is: FLIPR Ca2+ signal, HEK-293(EBNA), read-out: FUNCTIONAL EC50 HEP2.
Where [4] appears, read: FLIPR Ca2+ signal, HEK-293(EBNA), read-out: FUNCTIONAL EC50 HTP.

T1 sequence (P43116 whole entry): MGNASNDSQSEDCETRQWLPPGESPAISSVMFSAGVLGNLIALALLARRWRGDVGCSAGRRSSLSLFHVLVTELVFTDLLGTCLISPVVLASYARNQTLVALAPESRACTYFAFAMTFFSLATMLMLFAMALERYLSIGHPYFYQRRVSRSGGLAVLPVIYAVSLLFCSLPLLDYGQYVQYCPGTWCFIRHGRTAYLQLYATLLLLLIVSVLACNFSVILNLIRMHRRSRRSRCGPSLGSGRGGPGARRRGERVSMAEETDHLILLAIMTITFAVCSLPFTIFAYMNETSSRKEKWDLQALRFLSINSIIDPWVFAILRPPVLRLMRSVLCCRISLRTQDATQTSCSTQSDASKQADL
T3 sequence (P35408 whole entry): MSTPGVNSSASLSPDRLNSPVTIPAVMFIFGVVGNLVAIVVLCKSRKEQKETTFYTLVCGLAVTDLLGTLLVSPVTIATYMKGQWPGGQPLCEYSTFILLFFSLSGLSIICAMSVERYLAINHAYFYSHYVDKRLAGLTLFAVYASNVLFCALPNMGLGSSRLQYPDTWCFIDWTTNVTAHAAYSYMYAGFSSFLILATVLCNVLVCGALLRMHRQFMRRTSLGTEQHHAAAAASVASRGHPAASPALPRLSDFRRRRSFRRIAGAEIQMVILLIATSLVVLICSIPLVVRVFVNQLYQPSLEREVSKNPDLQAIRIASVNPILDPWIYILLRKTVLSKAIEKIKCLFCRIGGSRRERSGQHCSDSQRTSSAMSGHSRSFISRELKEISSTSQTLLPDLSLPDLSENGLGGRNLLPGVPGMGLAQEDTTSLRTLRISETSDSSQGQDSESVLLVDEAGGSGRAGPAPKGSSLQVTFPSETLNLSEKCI

By EC50 is commonly meant the concentration needed to bring the measured effect to its halfway point. Consider `O=C(O)CCCCCC[C@H]1C(=O)CC[C@@H]1c1ccc(C(O)C2CCCCC2)cc1` (stereo partly shown), for which the EC50 on hEP2/Gqs5 (setting [1]) and on hTP (setting [2]) was above 10 µM throughout.
With `O=C(O)CCC/C=C\C[C@@H]1[C@@H](c2ccc(C3(O)CCC3)cc2)[C@H](O)C[C@H]1Cl`, the EC50 is 0.513 µM on hEP2/Gqs5 (setting [3]) and above 10 µM at hTP (setting [4]).
`COC(=O)CCCCCC[C@@H]1[C@@H](c2ccc3c(c2)CCC3O)[C@H](O)C[C@H]1Cl` (stereo partly shown): the EC50 at hEP4/Gqs5 was 22.5 µM; on hTP (setting [4]), 17.5 µM.
Turning to `COC(=O)CCCCCC[C@H]1C(=O)CC[C@@H]1c1ccc(C(O)C2CCCCC2)cc1` (stereo partly shown), the EC50 on hEP2/Gqs5 (setting [1]) and on hTP (setting [2]) was above 10 µM in each case.
As to `CCCC1(C(O)c2cccc([C@@H]3[C@@H](C/C=C\CCCC(=O)OC)[C@H](Cl)C[C@H]3O)c2)CCC1` (stereo partly shown), the EC50 at hEP2/Gqs5 (setting [3]), on hEP3A/Gqi5 and on hTP (setting [4]) was above 10 µM each time.
`COC(=O)CCC/C=C\C[C@H]1C(=O)C[C@@H](O)[C@@H]1c1ccc(C(C)(C)C)cc1`: the EC50 at hEP2/Gqs5 (setting [3]) and at hTP (setting [4]) was above 10 µM in each case.
Take `COC(=O)CCCCCC[C@H]1C(=O)C[C@@H](O)[C@@H]1c1ccc(C(C)(C)C)cc1`: the EC50 was 0.936 µM at hEP2/Gqs5 (setting [3]), above 10 µM at hEP3A/Gqi5, above 10 µM at hEP4/Gqs5 and above 10 µM on hTP (setting [4]).
Take `O=C(O)CCCCCC[C@@H]1[C@@H](c2ccc(C3(O)CCC3)cc2)[C@H](O)C[C@H]1Cl`: the EC50 at hEP2/Gqs5 (setting [3]) is 0.743 µM; at hTP (setting [4]), above 10 µM.
